Reference: patent publication US9920063B2, “Melampomagnolide B derivatives” (Board of Trustees of the University of Arkansas, priority 2013, dated 2018)
Where two headings read alike, the source gives them in different places.

Method for AML 052308 cells: For each compound, in vitro cell culture studies were performed in which a range of concentrations (0.25-20 μM) was tested for cytotoxicity against leukemia cell lines, primary leukemia specimens and normal bone marrow controls.

`C=C1C(=O)O[C@H]2[C@H]1CC/C(COC(=O)c1cc3ccccc3[nH]1)=C\CC[C@@]1(C)O[C@@H]21` [BS-1-28] was tested, and the CC50 (HT29) was 5.97 µM, the “Percent Growth” value (HT29; HT29, Log10 Concentration −4.0) was −80% and the “Percent Growth” value (HT29; HT29, Log10 Concentration −5.0) was −57%. The “Percent Growth” value (HT29; HT29, Log10 Concentration −6.0) was −25%, the “Percent Growth” value (HT29; HT29, Log10 Concentration −7.0) was 109% and the “Percent Growth” value (HT29; HT29, Log10 Concentration −8.0) was 103%. It also gave a GI50 (HT29; HT29, NCI five dose) of 0.276 µM, a TGI (HT29; HT29, NCI five dose) of 6.51E−7 and a CC50 (MDA-MB-435) of 5.85 µM. The “Percent Growth” value (MDA-MB-435; MDA-MB-435, Log10 Concentration −4.0) was −96%, the “Percent Growth” value (MDA-MB-435; MDA-MB-435, Log10 Concentration −5.0) was −76% and the “Percent Growth” value (MDA-MB-435; MDA-MB-435, Log10 Concentration −6.0) was 44%. For the same compound, the “Percent Growth” value (MDA-MB-435; MDA-MB-435, Log10 Concentration −7.0) was 98%, the “Percent Growth” value (MDA-MB-435; MDA-MB-435, Log10 Concentration −8.0) was 97% and the GI50 (MDA-MB-435; MDA-MB-435, NCI five dose) was 0.763 µM. The TGI (MDA-MB-435; MDA-MB-435, NCI five dose) was 2.28E−6, the CC50 (SK-MEL-5) was 5.12 µM and the “Percent Growth” value (SK-MEL-5; SK-MEL-5, Log10 Concentration −4.0) was −95%. For the same compound, the “Percent Growth” value (SK-MEL-5; SK-MEL-5, Log10 Concentration −5.0) was −98%, the “Percent Growth” value (SK-MEL-5; SK-MEL-5, Log10 Concentration −6.0) was 67% and the “Percent Growth” value (SK-MEL-5; SK-MEL-5, Log10 Concentration −7.0) was 92%. The “Percent Growth” value (SK-MEL-5; SK-MEL-5, Log10 Concentration −8.0) was 96%, the GI50 (SK-MEL-5; SK-MEL-5, NCI five dose) was 1.26 µM and the TGI (SK-MEL-5; SK-MEL-5, NCI five dose) was 2.54E−6. The CC50 (SN12C) was 90.5 µM, the “Percent Growth” value (SN12C; SN12C, Log10 Concentration −4.0) was −59% and the “Percent Growth” value (SN12C; SN12C, Log10 Concentration −5.0) was −35%. For the same compound, the “Percent Growth” value (SN12C; SN12C, Log10 Concentration −6.0) was 77%, the “Percent Growth” value (SN12C; SN12C, Log10 Concentration −7.0) was 71% and the “Percent Growth” value (SN12C; SN12C, Log10 Concentration −8.0) was 60%. It also gave a GI50 (SN12C; SN12C, NCI five dose) of 1.14 µM, a TGI (SN12C; SN12C, NCI five dose) of 4.83E−6 and a CC50 (MDA-MB-231/ATCC) of 8.56 µM. For the same compound, the “Percent Growth” value (MDA-MB-231/ATCC; MDA-MB-231/ATCC, Log10 Concentration −4.0) was −73%, the “Percent Growth” value (MDA-MB-231/ATCC; MDA-MB-231/ATCC, Log10 Concentration −5.0) was −58% and the “Percent Growth” value (MDA-MB-231/ATCC; MDA-MB-231/ATCC, Log10 Concentration −6.0) was 56%. The “Percent Growth” value (MDA-MB-231/ATCC; MDA-MB-231/ATCC, Log10 Concentration −7.0) was 87%, the “Percent Growth” value (MDA-MB-231/ATCC; MDA-MB-231/ATCC, Log10 Concentration −8.0) was 89% and the GI50 (MDA-MB-231/ATCC; MDA-MB-231/ATCC, NCI five dose) was 1.14 µM. The TGI (MDA-MB-231/ATCC; MDA-MB-231/ATCC, NCI five dose) was 3.12E−6 and the “Fold more cytotoxic than MMB” value (AML 052308 cells) was “around 7 fold”.
